# Results published in patent US7232845B2, “Active substance combinations comprising insecticidal and acaricidal properties” (Bayer CropScience AG, priority 2000, dated 2007).
# Test system: whitefly Bemisia tabaci
# Test: Bemisia test (cotton plants infested with whitefly, immersed in active compound preparation)
# Format: in vivo
# Conditions: single active compound, 4 ppm; eggs, larvae and pupae on cotton plants (Gossypium hirsutum), immersion
# Description: The expected action for a given combination of two active compounds can be calculated as follows, using the formula of S. R. Colby, Weeds 15 (1967), 20–22:
# • X is the efficacy, expressed as % of the untreated control, when employing active compound A at an application rate of m g/ha or in a concentration of m ppm, • Y is the efficacy, expressed as % of the untreated control, when employing active compound B at an application rate of n g/ha or in a concentration of n ppm and • E is the efficacy, expressed as % of the untreated control, when employing active compounds A and B at application rates of m and n g/ha or in a concentration of m and n ppm, then
# [formula] If the actual insecticidal kill rate exceeds the calculated value, the action of the combination is superadditive, i.e. a synergistic effect is present. In this case, the actually observed insecticidal kill rate must exceed the value calculated using the above formula for the expected insecticidal kill rate (E).
# • Solvent: 7.5 parts by weight of dimethylformamide • Emulsifier: 2.5 parts by weight of alkylaryl polyglycol ether
# To produce a suitable preparation of active compound, 1 part by weight of active compound is mixed with the stated amounts of solvent and emulsifier, and the concentrate is diluted with water to the desired concentration.
# Cotton plants (Gossypium hirsutum) which are infested with eggs, larvae and pupae of the whitefly Bemisia tabaci are immersed in a preparation of active compound of the desired concentration.
# After the desired period of time, the kill in % is determined. 100% means that all animals have been killed; 0% means that none of the animals have been killed.
row,SMILES,Kill rate in % after 10^d [%]
1,"Cc1c(COC(=O)C2C(/C=C(\Cl)C(F)(F)F)C2(C)C)cccc1-c1ccccc1 (stereo not drawn) [Bifenthrin, bifenthrin]",0
2,Cc1cc(C)c(C2=C(OC(=O)CC(C)(C)C)C3(CCCC3)OC2=O)c(C)c1 [Ex. (I-b-1)],0
3,"CC1(C)C(C=C(Cl)Cl)C1C(=O)OC(C#N)c1ccc(F)c(Oc2ccccc2)c1 (stereo not drawn) [Cyfluthrin, cyfluthrin]",0
